Source: US9415069B2, “Immunosuppressive cells and methods of making and using thereof” (National Health Research Institutes, priority 2012, dated 2016)
“Also recorded” adds a separate entry of the source.

Tests used:
[1] = test system: human monocyte-derived dendritic cells (MDDCs); assay: Surface marker phenotype of human MDDCs by flow cytometry; assay type: cell-based; conditions: for effect on CD40 expression: human iMDDCs supplemented with GRO isoform, day 7
Description: Human monocyte-derived dendritic cells (MDDCs) were generated from leukaphereses obtained from healthy donors. Peripheral blood mononuclear cells (PBMCs) were purified by Fycoll-Hypaque Plus (GE Health-Pharmacia, Uppsala, Sweden) density centrifugation. CD14^+ monocytes were isolated using the human CD14^+ Cell Isolation Kit (MACS, Miltenyi Biotec, Inc., Auburn, Calif., USA) according to the manufacturer's instructions. The purified CD14^+ cells (1×10^6/mL) were subsequently cultured in 2 mL MSC-CM or α-MEM completed medium with 10% pooled AB-type human serum supplemented with rhGM-CSF (80 ng/mL) and rhIL-4 (80 ng/mL) (Peprotech, NJ) in the presence or absence of GRO chemokines to induce their differentiation into DCs. An additional 1 mL of medium containing the same concentrations of rhGM-CSF and rhIL-4 with or without GRO chemokines was added to each group of cells on day 3. Half-volume of culture medium was replaced with an equal volume of fresh medium containing the same concentrations of rhGM-CSF and rhIL-4 on day 5. Maturation of MDDCs (mature DCs, mMDDCs) was induced by adding 1 μg/mL LPS to the culture medium of iMDDCs on day 5 and cells were further cultured for another 48 hours. Phenotypic changes in immature DCs (iMDDCs) and mature DCs (mMDDCs) were monitored by FACS analysis on day 7. The study protocols were approved by the Institutional Review Board of Human Subject Research Ethics Committee of Academia Sinica (AS-IRB01-10113) and the Institutional Review Board of Research Ethics Committee of National Health Research Institutes (EC 1001101).
(§1) The phenotypic profiles of monocytes, iMDDCs and mMDDCs were obtained by staining 1×10^5 cells with fluorochrome-labeled antibodies (Abs) against CD11c, HLA-DR, CD80, CD86, CD83, CD40, and DC-SIGN. The fluorescence intensity was measured by flow cytometry. The corresponding isotype-matched controls used were FITC-IgG1, FITC-IgG2a, PE-IgG2a, and PE-IgG2b (BD Biosciences, San Jose, Calif., USA). Surface-labeled cells were analyzed using a FACS Calibur-flow cytometer (BD Biosciences). For cell purification, sorting was performed on a FACS Aria cell sorter (BD Biosciences). The purity of individual sorted cell populations was greater than 95%.

[2] = test system: mature MDDCs co-cultured with allogeneic T cells; assay: MLR assay (allogeneic T-cell proliferation, [3H]-thymidine); assay type: cell-based, human
Description: Monocyte-derived cells (3×10^4) at different stages of differentiation were irradiated at 30 Gy using an X-ray biological irradiator (X-ray R-2000, Rad Source Technologies, Inc, Alpharetta, Ga., USA) and then cultured with purified allogenic CD3 T cells (1:10) in complete culture medium in 96-well U-bottom plate. X-ray irradiated myeloid cells and allogenic T lymphocytes were placed in a humidified CO2 incubator at 37° C. After 96 hours, [^3H]-thymidine (1 μCi) was added to each well containing either monocytes-, iMDDCs-, or mMDDCs mixed with T cells, and further incubated for 16 hours. Cells were then harvested using a Filtermate 96-well harvester and radioactivity (cpm) measured as an index of cell proliferation in a Packard microplate scintillation and luminescence counter (Perkin-Elmer-Packard; Waltham, Mass., USA).

MDDCs [3] = assay: Real-time PCR of selected genes in MDDCs from 7-day cultures; assay type: cell-based, human; conditions: MDDC differentiation in presence of GRO-γ
Description: Total RNA was extracted with the Trizol reagent and converted to cDNA using a ReverTra Ace set (Toyobo Life Science, Osaka, Japan), according to manufacturer's instructions. Real-time PCR analysis was performed using an ABI Prism 7900 system (Applied Biosystems, Foster City, Calif., USA). Samples were treated according to the following program: 5° C. for 2 min, 94° C. for 10 min, and 40 cycles of 95° C. for 15 s and 60° C. for 1 min. Analyses were performed in triplicate. For each sample, the cycle threshold (Ct) values were determined. Results were normalized to the GAPDH gene on the same plate. The levels of mRNA expression in different cell groups were calculated using the 2ΔCt method. Intron-spanning primers specific for each gene were designed. Their sequences are as follows: human GAPDH, […] (forward primer, F, SEQ ID NO:4), […] (reverse primer, R, SEQ ID NO:5); human IL-10, […] (F, SEQ ID NO:6), […] (R, SEQ ID NO:7); human IDO, […] (F, SEQ ID NO:8), TGACCTTTGCCCCACACAT (R, SEQ ID NO:9); human matrix-metallopeptidase-9 (MMP-9), […] (F, SEQ ID NO:10), […] (R, SEQ ID NO:11); human IL-4, […] (F, SEQ ID NO:12), GCCTGTGGAACTGCTGTGC (R, SQ ID NO:13); human IL-12p40, CGGTCATCTGCCGCAAA (F, SEQ ID NO:14), […] (R, SEQ ID NO:15); human TNF-α, […] (F, SEQ ID NO:16), CAGGCAGAAGAGCGTGGTG (R, SEQ ID NO:17); human IFN-γ, […] (F, SEQ ID NO:18), […] (R, SEQ ID NO:19); human Cox2, […] (F, SEQ ID NO:20), […] […]

IDO in iDCs = assay: Intracellular IDO staining, confocal microscopy; assay type: cell-based, human; conditions: iDCs differentiated in presence of GRO-γ
Description: MDDCs were generated in the presence or absence of GRO-γ and then analyzed for the intracellular expression of the IDO protein. Cells (5×10^4) were plated onto poly-L-lysine-coated glass slides for 15 min, and washed twice quickly with 0.5 mL PBS. Cells were fixed by adding 0.5 mL of 1% paraformaldehyde (Sigma-Aldrich) for 10 minutes, and then subsequently washed with PBS three times and incubated in 0.5 mL of 1% BSA/PBS for 30 min at room temperature. Cells were washed with 0.1% (v/v) NP-40/PBS three times, and then incubated with 0.5% BSA/PBS containing 1:50 diluted mouse anti-human IDO antibody (Chemicon Inc, Temecula, Calif., USA) at room temperature for 1 h. Cells were further washed with 0.1% (v/v) NP-40/PBS to remove unbound antibody, and then incubated with 1:150 diluted anti-mouse IgG conjugated with DyLight 488 (Sigma-Aldrich) for 1 h at room temperature. After three final washes with 0.1% (v/v) NP-40/PBS, the slides were mounted with 10% Glycerol/PBS and sealed with nail polish. Fluorescent images were captured using a Leica TCS SP5 camera (Leica Camera AG, Solms, Germany).

immature MDDCs (iDCs) = assay: Endocytosis test (FITC-dextran uptake); assay type: cell-based, human
Description: The endocytic activity of iMDDCs or mMDDCs was measured by analyzing the cellular uptake of FITC-dextran (40 kD, FD40S, Sigma-Aldrich) as quantified by flow cytomerty. Cells (5×10^4 cells/sample/96 well V bottom plate) were incubated in RPMI-1640 medium with 1 mg/mL FITC-dextran for 30 min at 37° C. After incubation, cells were washed twice with staining buffer to remove free reagent then fixed with 1% paraformaldehyde. The signal from FITC-dextran endocytosed by cells was analyzed by FACS. Data analysis was performed using the FlowJo version 5.7.2 software. The signal obtained for cells incubated with medium in the absence of FITC-dextran was used as negative control.

MDDCs [4] = assay: ELISA of cytokines in MDDC supernatants; assay type: cell-based, human; conditions: MDDCs differentiated with GRO-γ, recultured 3 days
Description: Supernatants from MDDCs alone (5×10^4), CD3^+ purified T-cells alone (isolated by the human CD3^+ Cell Isolation Kit, MACS, Miltenyi Biotec, Inc., 5×10^5), or MDDCs (5×10^4) co-cultured with CD3^+ purified T-cells (5×10^5) were harvested, and the concentrations of IL-4, IL-10, IL-12, INF-γ, IL-6 and TNF-α in supernatants were determined in triplicates using commercial ELISA kits according to the manufacturer's protocols (R&D systems).

BMDCs from C57BL/6 mice = assay: FACS of CD11b+ Gr-1+ cells in mouse BMDCs; assay type: cell-based; conditions: GM-CSF with or without GRO-γ, six days
Description: as §1
(§2) Murine bone marrow-derived dendritic cells (BM-DCs) were harvested and differentiated into dentritic cells as previously described (Song et al., 2011). Briefly, bone marrow cells from C57BL/6 mice were cultured at a density of 2×10^5 cells/mL in petri dishes containing 10 mL of complete RPMI-1640 medium with 200 U/mL (20 ng/mL) recombinant mouse GM-CSF in the presence or absence of recombinant mouse GRO chemokine. On day 3, half of the volume of the culture medium was replaced by complete RPMI medium containing 20 ng/mL of […] combined with or without GRO. On day 6, BMDCs from the different treatment groups were collected from each dish, washed and characterized.

CD11b+ Gr-1+ BMDCs = assay: ARG-1 and iNOS expression in mouse BMDCs; assay type: cell-based
Description: Total RNA was extracted with the Trizol reagent and converted to cDNA using a ReverTra Ace set (Toyobo Life Science, Osaka, Japan), according to manufacturer's instructions. Real-time PCR analysis was performed using an ABI Prism 7900 system (Applied Biosystems, Foster City, Calif., USA). Samples were treated according to the following program: […], 94° C. for 10 min, and 40 cycles of 95° C. for 15 s and 60° C. for 1 min. Analyses were performed in triplicate. For each sample, the cycle threshold (Ct) values were determined. Results were normalized to the GAPDH gene on the same plate. The levels of mRNA expression in different cell groups were calculated using the 2ΔCt method. Intron-spanning primers specific for each gene were designed. Their sequences are as follows: human GAPDH, […] (forward primer, F, SEQ ID NO:4), […] (reverse primer, R, SEQ ID NO:5); human IL-10, […] (F, SEQ ID NO:6), […] (R, SEQ ID NO:7); human IDO, […] (F, SEQ ID NO:8), TGACCTTTGCCCCACACAT (R, SEQ ID NO:9); human matrix-metallopeptidase-9 (MMP-9), […] (F, SEQ ID NO:10), […] (R, SEQ ID NO:11); human IL-4, […] (F, SEQ ID NO:12), GCCTGTGGAACTGCTGTGC (R, SQ ID NO:13); human IL-12p40, CGGTCATCTGCCGCAAA (F, SEQ ID NO:14), […] (R, SEQ ID NO:15); human TNF-α, […] (F, SEQ ID NO:16), CAGGCAGAAGAGCGTGGTG (R, SEQ ID NO:17); human IFN-γ, […] (F, SEQ ID NO:18), […] (R, SEQ ID NO:19); human Cox2, […] (F, SEQ ID NO:20), […] (R, SEQ ID NO:21); human PD-L1, […] (F, SEQ ID NO:22), […] (R, SEQ ID NO:23); human PD-L2, […] (F, SEQ ID NO:24), […] (R, SEQ ID NO:25); human TGF-β, […] (F, SEQ ID NO:26), […] (R, SEQ ID NO:27); human IL-6, […] (F, SEQ ID NO:28), […] (R, SEQ ID NO:29); IL-1β, […] (F, SEQ ID NO:30), […] (R, SEQ ID NO:31); mouse GAPDH, GATGCAGGGATGATGTTC (F, SEQ ID NO:32), TGCACCACCAACTGCTTAG (R, SEQ ID NO:33); mouse Arginase 1(Arg-1), […] (F, SEQ ID NO:34), […] (R, SEQ ID NO:35); mouse iNOS, […] (F, SEQ ID NO:36), […] (R, SEQ ID NO:37); mouse IFN-γ, […] (F, SEQ ID NO:38), […] (R, SEQ ID NO:39).
as §2

Row | Molecule | effect on CD40 expression [1] | ability of mDCs to stimulate T-cell proliferation in mixed lymphocyte reaction ([2]; GRO-γ 250 ng/mL) | expression levels of IL-10, IL-4, TGF-β, IL-1β, IL-6, COX2, PD-L1, PD-L2, MMP-9 and IDO genes (MDDCs [3]) | mRNA levels of TNF-α, IFN-γ and IL-12 (MDDCs [3]) | intracellular expression of IDO (IDO in iDCs) | endocytic activity of iDCs (immature MDDCs (iDCs); GRO-γ 250 ng/mL) | levels of IFN-γ and IL-12 in supernatants (MDDCs [4]) | levels of IL-4 and IL-10 in supernatants (MDDCs [4]) | percentage (frequency) of double positive CD11b+ Gr-1+ cells in BMDCs (BMDCs from C57BL/6 mice) | protein expression and enzymatic activity of Arg-1 and iNOS (CD11b+ Gr-1+ BMDCs; GRO-γ treated BMDCs) | mRNA levels of ARG-1 and iNOS (CD11b+ Gr-1+ BMDCs; GRO-γ-treated BMDCs vs BMDCs) | expression of the Arg-1 gene, the iNOS gene, and the MDSC-related genes (CD11b+ Gr-1+ BMDCs; presence of GRO-γ during BMDC differentiation) | surface expression of CD40, CD83, CD80, CD11c, CD86 and DC-SIGN ([1]; iDCs, recombinant GRO-γ 250 ng/mL vs absence) | DC-SIGN expression ([1]; mDCs, addition of GRO-γ) | blocking of GRO-γ effect on ability of mDCs to stimulate T-cell proliferation ([2]; SB225002 250 nM plus GRO-γ) | blocking of GRO-γ effect on endocytic activity of iDCs (immature MDDCs (iDCs); SB225002 250 nM plus GRO-γ) | reversal of induction of ARG-1 and iNOS genes (CD11b+ Gr-1+ BMDCs; GM-CSF/GRO-γ/SB225002 treated BMDCs) | reversal of suppressive effect of GRO-γ on selected surface markers ([1]; iDCs and mDCs, SB225002 250 nM pretreatment 30 min plus GRO-γ) | DC-SIGN expression ([1]; iDCs and mDCs, addition of SB225002 with GRO-γ)
1 | GRO-α: recombinant human GRO chemokine CXCL1 (SEQ ID NO:1), PeproTech | significant inhibitory effects |  |  |  |  |  |  |  |  |  |  |  |  |  |  |  |  |  | 
2 | GRO-γ: recombinant GRO chemokine CXCL3 (SEQ ID NO:3); human from PeproTech, mouse from R&D Systems | significant inhibitory effects | significantly down-regulated | significantly up-regulated | significantly down-regulated | increase in intracellular expression | significantly down-regulated | reduced levels | elevated levels | did not depend on the presence of GRO-γ; also recorded: similar | increased | elevated | up-regulated | significantly reduced | not affected |  |  |  |  | 
3 | O=C(Nc1ccc([N+](=O)[O-])cc1O)Nc1ccccc1Br [SB225002, N-(2-Hydroxy-4-nitrophenyl)-N′-(2-bromophenyl) urea, reference compound] |  |  |  |  |  |  |  |  |  |  |  |  |  |  | blocked | blocked | reversed the induction | significantly reversed | not affected
